Where “and” joins values, the source holds several entries; their conditions need not be identical. Equal entries are not always repeated. Toxic doses and inconclusive results are not listed.
Tested on: L1210 leukemia ip in BDF1 mice, survival T/C
Experiment: NCI In Vivo Anticancer Drug Screen. Data for tumor model L1210 Leukemia (intraperitoneal) in B6D2F1 (BDF1) mice
Settings: endpoint: mean survival time, higher = longer survival
Procedure, shortened: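 Mice bearing the transplanted tumor received compound or vehicle. Survival of the treated group was divided by that of the vehicle-treated control group to give the ratio.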

[1] = dose: 100.0 mg/kg/injection, schedule: Q01DX001 (ip), vehicle: saline with Tween-80
[2] = dose: 200.0 mg/kg/injection, schedule: Q01DX001 (ip), vehicle: saline with Tween-80

c1ccc(-c2ccn(C3CCCCC3)c2-c2ccccc2)cc1
T/C [1]: 87 % of control
T/C [2]: 91 % of control
T/C (dose: 400.0 mg/kg/injection, schedule: Q01DX001 (ip), vehicle: saline with Tween-80): 92 % of control

Nc1nc(N)c2cc(CNc3ccc(C(=O)NC(CCCC(=O)O)C(=O)O)cc3)cnc2n1 (stereo not given)
T/C (dose: 100.0 mg/kg/injection, schedule: Q04DX003 (ip), vehicle: saline with Tween-80): 158 % of control and 175 % of control
T/C (dose: 200.0 mg/kg/injection, schedule: Q04DX003 (ip), vehicle: saline with Tween-80): 154 % of control
T/C (dose: 400.0 mg/kg/injection, schedule: Q04DX003 (ip), vehicle: saline with Tween-80): 87 % of control

CC(C)=CCC(O)(c1ccccc1)C(C)CN(C)C (stereo not given)
T/C (dose: 12.5 mg/kg/injection, schedule: Q01DX009 (ip), vehicle: saline): 94 % of control
T/C (dose: 12.5 mg/kg/injection, schedule: Q04DX003 (ip), vehicle: saline): 94 % of control
T/C (dose: 25.0 mg/kg/injection, schedule: Q01DX009 (ip), vehicle: saline): 106 % of control and 103 % of control
T/C (dose: 25.0 mg/kg/injection, schedule: Q04DX003 (ip), vehicle: saline): 94 % of control
T/C (dose: 50.0 mg/kg/injection, schedule: Q01DX009 (ip), vehicle: Klucel (hydroxypropylcellulose) (HPC)): 100 % of control
T/C (dose: 50.0 mg/kg/injection, schedule: Q01DX009 (ip), vehicle: saline): 101 % of control and 96 % of control
T/C (dose: 50.0 mg/kg/injection, schedule: Q04DX003 (ip), vehicle: saline): 118 % of control
T/C (dose: 100.0 mg/kg/injection, schedule: Q01DX009 (ip), vehicle: Klucel (hydroxypropylcellulose) (HPC)): 97 % of control
T/C (dose: 100.0 mg/kg/injection, schedule: Q01DX009 (ip), vehicle: saline): 98 % of control
T/C (dose: 200.0 mg/kg/injection, schedule: Q01DX009 (ip), vehicle: Klucel (hydroxypropylcellulose) (HPC)): 95 % of control

Nc1cc(C(=O)O)c2ccccc2c1
T/C (dose: 100.0 mg/kg/injection, schedule: Q01DX001 (ip), vehicle: saline): 89 % of control
T/C (dose: 200.0 mg/kg/injection, schedule: Q01DX001 (ip), vehicle: saline): 106 % of control
T/C (dose: 400.0 mg/kg/injection, schedule: Q01DX001 (ip), vehicle: saline): 95 % of control

CC(C)=NOC(N)=O
T/C (dose: 50.0 mg/kg/injection, schedule: Q01DX Z (ip), vehicle: water): 108 % of control
T/C (dose: 100.0 mg/kg/injection, schedule: Q01DX Z (ip), vehicle: water): 100 % of control
T/C (dose: 200.0 mg/kg/injection, schedule: Q01DX Z (ip), vehicle: water): 100 % of control
T/C (dose: 400.0 mg/kg/injection, schedule: Q01DX Z (ip), vehicle: water): 100 % of control

O=C1c2cscc2Cc2ccsc21
T/C [1]: 88 % of control
T/C [2]: 91 % of control

From PubChem BioAssay AID248 (DTP/NCI, 2004)
